Source: EP4257135A1, “BENZIMIDAZOLE DERIVATIVES FOR PULMONARY ARTERIAL HYPERTENSION” (Justus-Liebig-Universität Gießen, priority 2022, dated 2023)

Tests used:
PAH-SMCs = experiment: Apoptosis in PAH smooth muscle cells; format: cell-based, human; conditions: vs DMSO
Text: PAH-FBs wurden mit verschiedenen Konzentrationen der Substanz SGC-CBP30 oder dem Lösungsmittel DMSO inkubiert, um die Zellproliferation und die Induktion von Apoptose 24 Stunden danach zu untersuchen. Die Wirkung der selektiven EP300/CREBBP-Inhibition auf die Zellproliferation wurde durch den Einbau von BrdU (Bromodeoxyuridin, 5-Bromo-2'-Deoxyuridin, BUdR, BrdUrd, Broxuridine) bewertet. Die Wirkung der Substanz SGC-CBP30 oder des Lösungsmittels DMSO auf die Induktion von Apoptose wurde durch Cell Death Detection ELISAPLUS bewertet. Dabei zeigten sich deutliche Unterschiede zwischen der Substanz SGC-CBP30 und dem Lösungsmittel DMSO.
Das therapeutische Potenzial der EP300/CREBBP-Hemmung durch die Substanz SGC-CBP30 wurde untersucht. Dazu wurde die Wirksamkeit auf PAH-FBs und PAH-SMCs geprüft, die aus den Lungenarterien von menschlichen PAH-Patienten und aus den Lungenarterien von Ratten mit MCT-PAH (Rattenmodell mit Monocrotalin) isoliert wurden. […] Die Wirkung der EP300-Hemmung auf das vaskuläre Remodelling wurde durch Quantifizierung der prozentualen medialen Wanddicke in den mit der Substanz SGC-CBP30 inkubierten PCLS im Vergleich zu den mit DMSO inkubierten Kontrollen bewertet. Dabei zeigten sich deutliche Unterschiede zwischen der Substanz SGC-CBP30 und DMSO.

PAH-FBs = experiment: Cell proliferation by BrdU incorporation in PAH fibroblasts; format: cell-based, human; conditions: PAH-FBs isolated ex vivo; various concentrations; vs DMSO; 24 h
Text: Diese Untersuchungen führten zu der Erkenntnis, dass die epigenetische Regulation der entwicklungsbedingten TF-Expression in der Lunge durch Modulation der EP300/CREBBP-Funktion rückgängig gemacht werden kann. Die Wirkung des niedermolekularen Inhibitors (Substanz, Wirkstoff) SGC-CBP30 auf die Proliferation von Gefäßzellen, die Apoptose sowie die Gen- und Proteinexpression wurde mit Hilfe geeigneter Assays nach der Transfektion untersucht. Nachdem Zellen zur Subkonfluenz gewachsen sind, wurde ihnen mit steigenden Konzentrationen der selektive EP300-Inhibitor SGC-CBP30 (Sigma, Katalognummer: SML1133) hinzugefügt. Die aus PAH-Patienten isolierten FBs wurden also mit dem isoformselektiven HAT-Inhibitor SGC-CBP30 behandelt. Gleichzeitig wurde den Zellen das Lösungsmittel DMSO (Sigma) mit entsprechenden Konzentrationen hinzugefügt. […]
• A: PAH-FBs wurden mit siRNAs (siP300) behandelt, die auf EP300 abzielen (n=3), um die genspezifische funktionelle Rolle von EP300 bei der Hyperproliferation ex vivo 48 Stunden nach der Transfektion zu untersuchen. […] Skalenbalken: 50 µm. • E: Die Wirkung der P300-Inhibition (200 µM) auf den Gefäßumbau wurde durch Quantifizierung der prozentualen medialen Wanddicke in den mit dem EP300/CREBBP-Inhibitor SGC-CBP30 inkubierten PCLS im Vergleich zu den mit DMSO inkubierten Kontrollen bewertet. […]

In the case of `COc1ccc(CCc2nc3cc(-c4c(C)noc4C)ccc3n2C[C@H](C)N2CCOCC2)cc1Cl` [SGC-CBP30, 2-[2-(3-Chloro-4-methoxyphenyl)ethyl]-5-(3,5-dimethyl-1,2-oxazol-4-yl)-1-[(S)-2-(morpholin-4-yl)propyl]-1H-benzimidazole], the Apoptoserate (PAH-SMCs) is reported as “schwächte den hyperproliferativen Phänotyp und die Apoptoserate von PAH-FBs und PAH-SMCs deutlich ab” and the “hyperproliferativer Phänotyp (Zellproliferation, BrdU)” value (PAH-FBs) is reported as “schwächte den hyperproliferativen Phänotyp und die Apoptoserate von PAH-FBs und PAH-SMCs deutlich ab”.
